In US20240270741A1 (Cogent Biosciences, Inc., priority 2023, published 2024) one finds IC50 data, which are given here for twelve molecules.

Counter-ions that a name gives are not always drawn.

In the first assay the target is FGFR2 (Homo sapiens, UniProt P21802). Briefly: FGFR wild type enzyme assay (HTRF KinEASE-TK), FGFR2. The settings on record: Enz FGFR2 (nM).
Sequence of FGFR2 (P21802 399-821 limits assumed): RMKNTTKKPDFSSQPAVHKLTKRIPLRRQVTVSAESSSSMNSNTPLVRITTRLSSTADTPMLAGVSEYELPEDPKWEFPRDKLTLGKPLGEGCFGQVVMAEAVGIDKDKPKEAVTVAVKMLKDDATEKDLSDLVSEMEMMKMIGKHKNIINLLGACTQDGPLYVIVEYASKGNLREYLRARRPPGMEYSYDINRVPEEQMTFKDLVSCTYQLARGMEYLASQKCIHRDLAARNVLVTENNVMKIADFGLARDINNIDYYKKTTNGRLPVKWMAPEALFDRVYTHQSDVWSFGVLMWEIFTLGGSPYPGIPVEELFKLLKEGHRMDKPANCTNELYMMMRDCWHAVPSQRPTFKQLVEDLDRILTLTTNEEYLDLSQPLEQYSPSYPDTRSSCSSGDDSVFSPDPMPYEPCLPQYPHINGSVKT
Broadly, the IC50 is the point on the concentration scale where inhibition reaches its midpoint. Higher therefore signals weaker potency in that assay. For `N#Cc1cnn2cc(-c3cnn([C@H]4CCCNC4)c3)cc(Sc3cccc(C(F)F)n3)c12` [Example 75, 4-[[6-(difluoromethyl)-2-pyridyl]sulfanyl]-6-[1-[(3S)-3-piperidyl]pyrazol-4-yl]pyrazolo[1,5-a]pyridine-3-carbonitrile], the IC50 was determined as 22 nM.

For `Cn1nccc1Sc1cc(-c2cnn(C3CCNCC3)c2)cn2ncc(C#N)c12` [Example 61, 4-((1-methyl-1H-pyrazol-5-yl)thio)-6-(1-(piperidin-4-yl)-1H-pyrazol-4-yl)pyrazolo[1,5-a]pyridine-3-carbonitrile, HCl], half-maximal inhibition (IC50) was put at 9 nM. This IC50 is about 2.4-fold lower than that of the molecule before.

Consider `Cc1c(-c2cc(Sc3cccc4ncn(C)c34)c3c(C#N)cnn3c2)cnn1C1CCN(C)CC1` [Example 132, 4-(3-methylbenzimidazol-4-yl)sulfanyl-6-[5-methyl-1-(1-methyl-4-piperidyl)pyrazol-4-yl]pyrazolo[1,5-a]pyridine-3-carbonitrile], for which it took 10 nM to reach half-maximal inhibition (IC50).

Still in this assay, the particulars now being: Enz FGFR2 (nM), FGFR2 wild type enzyme.
In turn, `Cc1c(-c2cc(Sc3ccc(F)cn3)c3c(C#N)cnn3c2)cnn1[C@H]1CC[C@@](C)(N)CC1` [Example 291, 6-(1-((1s,4s)-4-amino-4-methylcyclohexyl)-5-methyl-1H-pyrazol-4-yl)-4-((5-fluoropyridin-2-yl)thio)pyrazolo[1,5-a]pyridine-3-carbonitrile] displayed an IC50 of 3 nM. On the same count and under the same terms, for `Cc1c(-c2cc(Sc3ccc(F)cn3)c3c(C#N)cnn3c2)cnn1[C@H]1CCCNC1` [Example 307, (S)-4-((5-fluoropyridin-2-yl)thio)-6-(5-methyl-1-(piperidin-3-yl)-1H-pyrazol-4-yl)pyrazolo[1,5-a]pyridine-3-carbonitrile] the value was 5 nM.

The same assay, now with this note: Enz FGFR2 (nM), FGFR2 wild type enzyme assay.
As for `N#Cc1ccccc1Sc1cc(-c2ccc(N3CCO[C@H](CO)C3)nc2)cn2ncc(C#N)c12` [Example 649, (S)-4-((2-cyanophenyl)thio)-6-(6-(2-(hydroxymethyl)morpholi-no)pyridin-3-yl)pyrazolo[1,5-a]pryidine-3-carbonitrile], half-maximal inhibition (IC50) required 0.5 nM. That is a sub-nanomolar value. Consider `N#Cc1ccccc1Sc1cc(-c2cnn([C@H]3CCCNC3)c2F)cn2ncc(C#N)c12` [Example 625, (S)-4-((2-cyanophenyl)thio)-6-(5-fluoro-1-(piperidin-3-yl)-1H-pyrazol-4-yl)pyrazolo[1,5-a]pyridine-3-carbonitrile], for which the midpoint of inhibition, the IC50, lay at 1 nM.

For `Cc1c(-c2cc(Sc3ccc(F)cc3C#N)c3c(C#N)cnn3c2)cnn1[C@H]1CNC(C)(C)C1` [Example 440, (R)-4-((2-cyano-4-fluorophenyl)thio)-6-(1-(5,5-dimethylpyrrolidin-3-yl)-5-methyl-1H-pyrazol-4-yl)pyrazolo[1,5-a]pyridine-3-carbonitrile], the midpoint of inhibition, the IC50, lay at 2 nM. For `C[C@@H](O)CCn1cc(-c2cc(Sc3ccccc3C#N)c3c(C#N)cnn3c2)cn1` [Example 571, (R)-4-((2-cyanophenyl)thio)-6-(1-(3-hydroxybutyl)-1H-pyrazol-4-yl)pyrazolo[1,5-a]pyridine-3-carbonitrile], the midpoint of inhibition, the IC50, lay at 1 nM. On the same count and under the same terms, with `N#Cc1cc(F)ccc1Sc1cc(-c2cnn([C@H]3CCCNC3)n2)cn2ncc(C#N)c12` [Example 462, (S)-4-((2-cyano-4-fluorophenyl)thio)-6-(2-(piperidin-3-yl)-2H-1,2,3-triazol-4-yl)pyrazolo[1,5-a]pyridine-3-carbonitrile] the figure was 19 nM; with `CN(C)C(=O)Cn1cc(-c2cc(Sc3ccccc3C#N)c3c(C#N)cnn3c2)cn1` [Example 541, 2-(4-(3-cyano-4-((2-cyanophenyl)thio)pyrazolo [1,5-a]pyridin-6-yl)-1H-pyrazol-1-yl)-N,N-dimethylacetamide], 1 nM. The molecule `CC(C)(C)n1cc(-c2cc(Sc3ccccc3C#N)c3c(C#N)cnn3c2)cn1` [Example 493, 6-(1-(tert-butyl)-1H-pyrazol-4-yl)-4-((2-cyanophenyl)thio)pyrazolo [1,5-a]pyridine-3-carbonitrile] yielded an IC50 of 1 nM.
